Where a chain is given by its changes, count along the chain named.

One assay concerns the target T1, human SNP variant (S309L) of GPR119 (Homo sapiens, UniProt Q8TDV5, S309L).
T1 construct: expressed in transfected cells; host or cells: HEK293 Flp-In (Invitrogen)
T1 sequence (Q8TDV5 1-335 S309L): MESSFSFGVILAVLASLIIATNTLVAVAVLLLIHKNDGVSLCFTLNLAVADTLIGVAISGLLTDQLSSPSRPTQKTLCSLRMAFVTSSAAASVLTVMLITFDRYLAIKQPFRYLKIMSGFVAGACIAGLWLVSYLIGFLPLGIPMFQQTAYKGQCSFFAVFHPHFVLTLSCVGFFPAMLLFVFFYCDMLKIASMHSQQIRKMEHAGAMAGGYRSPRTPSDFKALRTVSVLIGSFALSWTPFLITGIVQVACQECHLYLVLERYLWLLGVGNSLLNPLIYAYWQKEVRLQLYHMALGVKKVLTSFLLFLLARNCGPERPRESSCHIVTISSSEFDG
Put plainly: GPR119 signaling, cAMP homogenous time resolved fluorescence (HTRF) assay. The format is cell-based. Particulars: HEK293 Flp-In cells stably transfected with human GPR119 (S309L), HTRF kit. An excerpt: Measurement of GPR119 Signaling Using a Cyclic AMP (cAMP) Homogenous Time Resolved Fluorescence (HTRF) Assay
Chinese hamster ovary (CHO) cell lines stably transfected with the permissive guanine nucleotide binding protein alpha 15 (Gals) and murine GPR119 were maintained in DMEM media containing FBS, penicillin-streptomycin, puromycin, and G418 (geneticin). Alternatively, human embryonic kidney (HEK)293 Flp-In cells (Invitrogen, Carlsbad, Calif.) were stably transfected with a human SNP variant (S309L) of GPR119 and maintained in DMEM media containing FBS, penicillin-streptomycin, and hygromycin. Agonist activation of the GPR119 receptor was measured in receptor transfected cells described above, treated with compounds of this invention, using a commercial homogenous time resolved fluorescence (HTRF) kit for measurement of cAMP (CisBio, Bedford, Mass.). The assay was performed in 96-well half-volume plates (murine) or 384-well plates (human) following the manufacturers instructions. Briefly, suspended cells were incubated with a dose titration of test compound at RT for 60 min, lysed, and incubated with HTRF reagents for an additional 60 min. The plate was read using an Envision multilabel reader (Perkin Elmer) adjusted to read time resolved fluorescence and the cAMP concentrations were extrapolated from a cAMP calibration curve. […] The concentration of test compound required to stimulate a half-maximal response (EC50), and efficacy as compared to an internal agonist control, was determined from a sigmoidal 4-parameter curve fit of the resulting plot of normalized activity versus compound concentration.
The term EC50 denotes the concentration at which the effect is half-maximal. Molecule `CCc1cnc(N2CCC([C@H]3C[C@@H]3COCc3ccc(S(C)(=O)=O)cc3)CC2)nc1` [Example 10, 5-ethyl-2-(4-((1R,2S)-2-(((4-(methylsulfonyl)benzyl)oxy)methyl)cyclopropyl)piperidin-1-yl)pyrimidine] had an EC50 of 1.9 nM.

`CCS(=O)(=O)c1ccc(COC[C@H]2C[C@@H]2C2CCN(c3ncc(C)cn3)CC2)cc1` [Example 7, 2-(4-((1R,2S)-2-(((4-(ethylsulfonyl)benzyl)oxy)methyl)cyclopropyl)piperidin-1-yl)-5-methylpyrimidine] gave an EC50 of 5.8 nM.

As for `CS(=O)(=O)c1ccc(OCC[C@@]2(C#N)C[C@@H]2C2CCN(c3ncc(Cl)cn3)CC2)cc1` [Example 127, (1S,2R)-2-(1-(5-chloropyrimidin-2-yl)piperidin-4-yl)-1-(2-(4-(methylsulfonyl)phenoxy)ethyl)cyclopropanecarbonitrile], the EC50 was determined as 3 nM.

Consider `CCS(=O)(=O)c1ccc(COC[C@H]2C[C@@H]2C2CCN(c3ncc(Cl)cn3)CC2)cc1` [Example 3, 5-chloro-2-(4-((1R,2S)-2-(((4-(ethylsulfonyl)benzyl)oxy)methyl)cyclopropyl)piperidin-1-yl)pyrimidine], for which the EC50 turned out to be 0.73 nM. Compared with the last molecule, the EC50 is about 4.1-fold lower.

Take `CS(=O)(=O)c1ccc(COC[C@H]2C[C@@H]2C2CCN(c3ncc(Cl)cn3)CC2)cc1F` [Example 5, 5-chloro-2-(4-((1R,2S)-2-(((3-fluoro-4-(methylsulfonyl)benzyl)oxy)methyl)cyclopropyl)piperidin-1-yl)pyrimidine]: it took 1 nM to reach a half-maximal effect (EC50).

Molecule `CS(=O)(=O)c1ccc(COC[C@H]2C[C@@H]2C2CCN(C(=O)OC3CC3)CC2)cc1` [Example 16, cyclopropyl 4-((1R,2S)-2-(((4-(methylsulfonyl)benzyl)oxy)methyl)cyclopropyl)piperidine-1-carboxylate] showed an EC50 of 5.7 nM.

The target in the next assay is T2, human GPR119 (Homo sapiens, UniProt Q8TDV5).
T2 construct: expressed in transfected cells; host or cells: HEK293
T2 sequence (Q8TDV5 1-335): T1 sequence (Q8TDV5 1-335 S309L) with L309S
Put plainly: Measurement of GPR119 signaling using LANCE 384-well cAMP kit (LCMP assay). The format is cell-based. Particulars: HEK293 cells stably transfected with human GPR119. The method in brief:
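HEK293 cells stably expressing human GPR119, in stimulation buffer at pH 7.4 with 100 μM phosphodiesterase inhibitors, exposed to a 10-point compound dilution (2.5% DMSO final) for 45 min. cAMP measured by LANCE TR-FRET at 665 nm against a cAMP standard curve, normalized between DMSO basal and an internal agonist maximum, with a 4-parameter fit.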
A general note: Time-resolved FRET reads energy transfer from a long-lived donor to a nearby acceptor.
On to `CC(C)c1noc(N2CCC([C@@H]3C[C@H]3CCOc3ccc(N4CCNC4=O)cc3F)CC2)n1` [Example 88, 1-(3-fluoro-4-(2-((1S,2S)-2-(1-(3-isopropyl-1,2,4-oxadiazol-5-yl)piperidin-4-yl)cyclopropyl)ethoxy)phenyl)imidazolidin-2-one], for which the EC50 was 18 nM.

As for `O=C(Cc1ccc(OCC[C@H]2C[C@@H]2C2CCN(c3ncc(Cl)cn3)CC2)cc1F)N1CCC1` [Example 34, 1-(azetidin-1-yl)-2-(4-(2-((1R,2R)-2-(1-(5-chloropyrimidin-2-yl)piperidin-4-yl)cyclopropyl)ethoxy)-2-fluorophenyl)ethanone], the EC50 is 0.64 nM.

Turning to `Clc1cnc(N2CCC([C@H]3C[C@@H]3CCNc3ncc(-n4cnnn4)cn3)CC2)nc1` [Example 123, N-(2-((1R,2S)-2-(1-(5-chloropyrimidin-2-yl)piperidin-4-yl)cyclopropyl)ethyl)-5-(1H-tetrazol-1-yl)pyrimidin-2-amine], the EC50 was 10 nM.

For the molecule `CCc1cnc(N2CCC([C@H]3C[C@@H]3CCOc3ccc(S(C)(=O)=O)c(F)c3)CC2)nc1` [Example 27, 5-ethyl-2-(4-((1R,2R)-2-(2-(3-fluoro-4-(methylsulfonyl)phenoxy)ethyl)cyclopropyl)piperidin-1-yl)pyrimidine], the EC50 came to 5.5 nM. This EC50 is about 1.8-fold lower than that of the molecule before.

`COCc1noc(N2CCC([C@@H]3C[C@H]3CCOc3cc(F)c(CC(=O)N4CCC4)c(F)c3)CC2)n1` [Example 83, 1-(azetidin-1-yl)-2-(2,6-difluoro-4-(2-((1S,2S)-2-(1-(3-(methoxymethyl)-1,2,4-oxadiazol-5-yl)piperidin-4-yl)cyclopropyl)ethoxy)phenyl)ethanone] had an EC50 of 5.2 nM.

`COCc1cnc(N2CCC([C@H]3C[C@@H]3CCOc3ccc(S(C)(=O)=O)c(F)c3)CC2)nc1` [Example 33, 2-(4-((1R,2R)-2-(2-(3-fluoro-4-(methylsulfonyl)phenoxy)ethyl)cyclopropyl)piperidin-1-yl)-5-(methoxymethyl)pyrimidine]: a half-maximal response (EC50) required 15 nM.

`CC1(OC(=O)N2CCC([C@@H]3C[C@H]3CCOc3ccc(-n4cnnn4)c(F)c3)CC2)CC1` [Example 105, 1-methylcyclopropyl 4-((1S,2S)-2-(2-(3-fluoro-4-(1H-tetrazol-1-yl)phenoxy)ethyl)cyclopropyl)piperidine-1-carboxylate] gave an EC50 of 15 nM. This counts as double-digit nanomolar.

For the molecule `CC(C)c1noc(N2CCC([C@@H]3C[C@H]3CCOc3cc(F)c(CC(=O)N(C)C)c(F)c3)CC2)n1` [Example 77, 2-(2,6-difluoro-4-(2-((1S,2S)-2-(1-(3-isopropyl-1,2,4-oxadiazol-5-yl)piperidin-4-yl)cyclopropyl)ethoxy)phenyl)-N,N-dimethylacetamide], the EC50 worked out at 0.79 nM.

Molecule `COCc1cnc(N2CCC([C@H]3C[C@@H]3CCOc3cc(F)c(CC(=O)N4CCC4)c(F)c3)CC2)nc1` [Example 56, 1-(azetidin-1-yl)-2-(2,6-difluoro-4-(2-((1R,2R)-2-(1-(5-(methoxymethyl)pyrimidin-2-yl)piperidin-4-yl)cyclopropyl)ethoxy)phenyl)ethanone] yielded an EC50 of 0.4 nM.

`CCc1cnc(N2CCC([C@H]3C[C@@H]3CCOc3ccc(S(C)(=O)=O)cc3F)CC2)nc1` [Example 28, 5-ethyl-2-(4-((1R,2R)-2-(2-(2-fluoro-4-(methylsulfonyl)phenoxy)ethyl)cyclopropyl)piperidin-1-yl)pyrimidine] returned an EC50 of 8.8 nM.

`CC1(OC(=O)N2CCC([C@H]3C[C@@H]3CCOc3cc(F)c(CC(=O)N4CCC4)c(F)c3)CC2)CC1` [Example 103, 1-methylcyclopropyl 4-((1R,2R)-2-(2-(4-(2-(azetidin-1-yl)-2-oxoethyl)-3,5-difluorophenoxy)ethyl)cyclopropyl)piperidine-1-carboxylate] showed an EC50 of 0.7 nM. This EC50 lies about 13-fold lower than the previous one.

`CCc1cnc(N2CCC([C@H]3C[C@@H]3CCOc3ccc(CC(=O)N4CCC4)c(F)c3)CC2)nc1` [Example 45, 1-(azetidin-1-yl)-2-(4-(2-((1R,2R)-2-(1-(5-ethylpyrimidin-2-yl)piperidin-4-yl)cyclopropyl)ethoxy)-2-fluorophenyl)ethanone] came in with a concentration for a half-maximal effect (EC50) of 0.8 nM.

In turn, `CCc1cnc(N2CCC([C@H]3C[C@@H]3COCc3ccc(S(C)(=O)=O)cc3F)CC2)nc1` [Example 8, 5-ethyl-2-(4-((1R,2S)-2-(((2-fluoro-4-(methylsulfonyl)benzyl)oxy)methyl)cyclopropyl)piperidin-1-yl)pyrimidine] came in with an EC50 of 1.3 nM.

`COCc1noc(N2CCC([C@H]3C[C@@H]3CCOc3ccc(-n4cnnn4)cc3F)CC2)n1` [Example 90, 5-(4-((1R,2R)-2-(2-(2-fluoro-4-(1H-tetrazol-1-yl)phenoxy)ethyl)cyclopropyl)piperidin-1-yl)-3-(methoxymethyl)-1,2,4-oxadiazole]: the EC50 was determined as 20 nM.

As for `COCc1cnc(N2CCC([C@@H]3C[C@H]3CCOc3ccc(CC(=O)N(C)C)c(F)c3)CC2)nc1` [Example 52, 2-(2-fluoro-4-(2-((1S,2S)-2-(1-(5-(methoxymethyl)pyrimidin-2-yl)piperidin-4-yl)cyclopropyl)ethoxy)phenyl)-N,N-dimethylacetamide], the EC50 came out at 9.6 nM.

In the case of `O=C1NCCN1c1ccc(OCC[C@H]2C[C@@H]2C2CCN(c3ncc(Cl)cn3)CC2)cc1F` [Example 61, 1-(4-(2-((1R,2R)-2-(1-(5-chloropyrimidin-2-yl)piperidin-4-yl)cyclopropyl)ethoxy)-2-fluorophenyl)imidazolidin-2-one], a half-maximal effect (EC50) was put at 17 nM. This EC50 is about 1.8-fold higher than that of the molecule before.

With `CCc1cnc(N2CCC([C@H]3C[C@@H]3CCOc3cc(F)c(CC(=O)N4CCC4)c(F)c3)CC2)nc1` [Example 54, 1-(azetidin-1-yl)-2-(4-(2-((1R,2R)-2-(1-(5-ethylpyrimidin-2-yl)piperidin-4-yl)cyclopropyl)ethoxy)-2,6-difluorophenyl)ethanone], the response was half-maximal at 0.25 nM (EC50).

The record behind these values is patent US20150274664A1 (MERCK SHARP & DOHME CORP., priority 2012, published 2015).
